Experimental findings from patent US20040253207A1, “Methods and compositions for prostate epithelial cell differentiation” (Barnes-Jewish Hospital, priority 2002, published 2004) are described below.

*: point of attachment. Decanoyl = CCCCCCCCCC(=O)*; CH2Cl = ClC*

Common to all, as to assay type: cell-based, human
The subject of assay [1] is proprotein convertases (PCs) in LNCaP, PC3 and DU145 cells. In words: Proprotein convertase activity assay (cleavage of fluorogenic substrate boc-RVRR-amc). To be noted: 100 μM CMK for 24 hours. The protocol:
For determination of cellular PC activity, 30,000 cells were seeded in 48-well plates for 24 hours. The next day, growth medium and CMK were added until a final concentration of 100 μM was reached. After a 24-hour incubation, media were replaced and cells were washed with PBS. Additional 48-well plates were prepared in the same manner for the determination of cell number which was used for normalization. 150 μl of assay medium which consists of RPMI 1640 with 0.25% Triton X-100 for permeabilization and boc-RVRR-amc (100 μM) as a fluorogenic substrate were added to each well. Fluorescence was measured at 360 nm excitation and 460 nm emission wavelengths after 4 h of substrate addition. The data were normalized to cell number. Human recombinant furin (Sigma, St. Louis, Mo.) was used for positive control.
PC activity in prostate cancer cells and inhibition of PC activity by CMK was next examined. LNCaP, PC3 and DU 145 cells were incubated in the presence or absence of 100 μM CMK for 24 hours. Thereafter, 100 μM fluorogenic substrate, boc-RVRR-amc, was added and cells were incubated for an additional four hours. PC activity was assayed by measuring the cleavage of the fluorogenic substrate.

Assay [2] has as its system PSA expression in LNCaP cells. In words: DHT-stimulated PSA expression in LNCaP cells (anti-PSA immunoblot). Particulars: various concentrations of CMK, 24 hours. The protocol: (§1) Cells (approximately 1×10^6 cells) were seeded in 100 mm cell culture dishes and cultured in RPMI 1640 supplemented with 10% fetal bovine serum at 5% CO2. Subconfluent cells were washed with phosphate buffered saline (PBS), lysed in lysis buffer (Cell Signaling Technology, Beverly, Mass.) and used for cell lysate. For the detection of PDF in conditioned media, subconfluent cells were serum-starved for 24 h. The serum free media were collected and precipitated with 10% trichloroacetic acid. After centrifugation, pellets were dissolved in the buffer which consisted of 8 M urea, 50 mM Tris (pH 8.0) and 0.1% NP-40. Samples were mixed in 5× Laemmli sample buffer with 2% beta-mercaptoethanol, subjected to electrophoresis on a 15% SDS-polyacrylamide gel, and transferred to PVDF membranes. Membranes were blocked with PBS containing 0.1% Tween 20 and 5% non-fat dry milk for 1 h at room temperature and incubated with the appropriate primary antibodies and antisera (1:500-2000) overnight at 4° C. After the membranes were washed three times with PBS containing 0.1% Tween 20, the membranes were incubated with appropriate horse-radish peroxidase-conjugate secondary antibodies (1:2000) for 1 h at 4° C. The protein bands were visualized by chemiluminescence using SuperSignal West Pico ECL kit (PIERCE, Rockford, Ill.). This protocol was used for the detection of PDF, cytokeratin and PSA. […]

For the next assay, the system named is LNCaP cells. In words: Prostate epithelial cell differentiation markers (cytokeratin immunoblot), LNCaP. Particulars: various concentrations of CMK, 72 hours, serum-free RPMI 1640. The protocol: as §1
Assay [3] relates to PDF processing in LNCaP cells. In words: PC-dependent PDF processing in LNCaP cells, immunoblot for pro-PDF and mature PDF. To be noted: various concentrations of CMK, 24 hours. The protocol:
Cells (approximately 1×10^6 cells) were seeded in 100 mm cell culture dishes and cultured in RPMI 1640 supplemented with 10% fetal bovine serum at 5% CO2. Subconfluent cells were washed with phosphate buffered saline (PBS), lysed in lysis buffer (Cell Signaling Technology, Beverly, Mass.) and used for cell lysate. For the detection of PDF in conditioned media, subconfluent cells were serum-starved for 24 h. The serum free media were collected and precipitated with 10% trichloroacetic acid. After centrifugation, pellets were dissolved in the buffer which consisted of 8 M urea, 50 mM Tris (pH 8.0) and 0.1% NP-40. Samples were mixed in 5× Laemmli sample buffer with 2% beta-mercaptoethanol, subjected to electrophoresis on a 15% SDS-polyacrylamide gel, and transferred to PVDF membranes. Membranes were blocked with PBS containing 0.1% Tween 20 and 5% non-fat dry milk for 1 h at room temperature and incubated with the appropriate primary antibodies and antisera (1:500-2000) overnight at 4° C. After the membranes were washed three times with PBS containing 0.1% Tween 20, the membranes were incubated with appropriate horse-radish peroxidase-conjugate secondary antibodies (1:2000) for 1 h at 4° C. The protein bands were visualized by chemiluminescence using SuperSignal West Pico ECL kit (PIERCE, Rockford, Ill.). This protocol was used for the detection of PDF, cytokeratin and PSA.
PC-dependent PDF processing in LNCaP cells was also examined in the presence of CMK by immunoblotting for PDF. Cells were cultured and serum-starved with and without various concentrations of CMK for 24 hours. Cells and supernatants were electrophoresed on 15% SDS-PAGE. Immunoblots were performed with anti-pro-PDF antibody (˜40 kd pro-PDF form) and anti-PDF antisera (˜17 kd mature PDF form).

For the substance “decanoyl-Arg-Val-Lys-Arg-chloromethylketone (Decanoyl-RVKR-CH2Cl) [CMK]”, in assay [1], the “PC activity (cleavage of boc-RVRR-amc)” value is given as “inhibition of PCs”. For the same substance, the “levels of endogenous PSA” value in assay [2] (in the absence of DHT) is listed as “not affected”. For the same substance, the “androgen-induced PSA expression” value in assay [2] (in the presence of DHT) was “inhibited”. In addition, in the assay with LNCaP cells, the “expression of cytokeratin 8, 18 and 19” value is given as “down-regulated”; the “expression of cytokeratin 14” value is listed as “upregulated in a dose-dependent manner”. In assay [3] (LNCaP cell lysate), the “cellular PDF” value was “did not affect”. Also, in assay [3] (serum-starved), the “PDF processing (mature PDF) in LNCaP-conditioned media” value is “reduction of PDF processing in LNCaP-conditioned media in a dose-dependent manner” and the “pro-PDF in LNCaP-conditioned media” value is given as “concomitant increase in pro-PDF”.
